Data: the CheMixHub ionic liquid set
± gives the uncertainty stated by the source.

Test: xn = mol fraction of the nth substance listed

CCCC[n+]1ccn(C)c1.O=S(=O)([N-]S(=O)(=O)C(F)(F)F)C(F)(F)F + O=C1CCCCO1
100 kPa, frequency 0.01 MHz, x1 = 1
Conditions	electrical conductivity [S/m]
298.15 K	0.4 ± 0.016
318.15 K	0.733 ± 0.029

FC(F)(F)c1ccccc1 + CCCC[N+]1(C)CCCC1.FC(F)(F)C(F)(F)[P-](F)(F)(F)(C(F)(F)C(F)(F)F)C(F)(F)C(F)(F)F
101 kPa
Conditions	electrical conductivity [S/m]	viscosity [mPa·s]
298.1 K, x2 = 0	–	0.53 ± 0.03
298.1 K, x2 = 0.059	0.368 ± 0.007	–
298.1 K, x2 = 0.099	0.536 ± 0.011	–
298.1 K, x2 = 0.144	0.663 ± 0.013	–
298.1 K, x2 = 0.198	–	3.67 ± 0.15
298.1 K, x2 = 0.203	0.762 ± 0.015	–
298.1 K, x2 = 0.27	–	5.93 ± 0.31
298.1 K, x2 = 0.274	0.696 ± 0.014	–
298.1 K, x2 = 0.371	0.619 ± 0.012	–
298.1 K, x2 = 0.495	–	21.7 ± 1
298.1 K, x2 = 0.5	0.461 ± 0.009	–
298.1 K, x2 = 0.69	0.311 ± 0.006	55.1 ± 2.3
298.1 K, x2 = 0.858	0.172 ± 0.003	111.8 ± 5.9
303 K, x2 = 0.063	0.394 ± 0.008	–
303 K, x2 = 0.099	0.576 ± 0.012	–
303 K, x2 = 0.144	0.711 ± 0.014	–
303 K, x2 = 0.2	0.82 ± 0.016	–
303 K, x2 = 0.274	0.772 ± 0.015	–
303 K, x2 = 0.366	–	8.56 ± 0.35
303 K, x2 = 0.374	0.681 ± 0.014	–
303 K, x2 = 0.497	0.553 ± 0.011	–
303 K, x2 = 0.498	–	17.83 ± 0.75
303 K, x2 = 0.694	0.369 ± 0.007	–
303 K, x2 = 0.852	–	84.4 ± 3.7
303 K, x2 = 0.858	0.212 ± 0.004	–
308.1 K, x2 = 0.063	0.415 ± 0.008	–
308.1 K, x2 = 0.102	0.612 ± 0.012	–
308.1 K, x2 = 0.141	0.766 ± 0.015	–
308.1 K, x2 = 0.201	–	2.93 ± 0.12
308.1 K, x2 = 0.206	0.886 ± 0.018	–
308.1 K, x2 = 0.281	0.842 ± 0.017	–
308.1 K, x2 = 0.366	–	7.87 ± 0.33
308.1 K, x2 = 0.378	0.761 ± 0.015	–
308.1 K, x2 = 0.5	0.611 ± 0.012	–
308.1 K, x2 = 0.69	–	39.4 ± 1.6
308.1 K, x2 = 0.694	0.435 ± 0.009	–
308.1 K, x2 = 0.858	0.259 ± 0.005	–
313 K, x2 = 0.063	0.434 ± 0.009	–
313 K, x2 = 0.099	0.645 ± 0.013	–
313 K, x2 = 0.141	–	1.77 ± 0.08
313 K, x2 = 0.142	0.817 ± 0.016	–
313 K, x2 = 0.203	0.951 ± 0.019	–
313 K, x2 = 0.278	0.911 ± 0.018	–
313 K, x2 = 0.371	0.834 ± 0.017	–
313 K, x2 = 0.498	–	12.73 ± 0.53
313 K, x2 = 0.5	0.688 ± 0.014	–
313 K, x2 = 0.687	–	32.3 ± 1.4
313 K, x2 = 0.697	0.504 ± 0.01	–
313 K, x2 = 0.859	0.31 ± 0.006	–
318.1 K, x2 = 0.063	0.456 ± 0.009	–
318.1 K, x2 = 0.099	0.678 ± 0.014	–
318.1 K, x2 = 0.142	0.86 ± 0.017	–
318.1 K, x2 = 0.2	1.02 ± 0.02	–
318.1 K, x2 = 0.275	0.988 ± 0.02	–
318.1 K, x2 = 0.369	–	6.11 ± 0.25
318.1 K, x2 = 0.372	0.914 ± 0.018	–
318.1 K, x2 = 0.504	0.757 ± 0.015	–
318.1 K, x2 = 0.687	–	26.6 ± 1.2
318.1 K, x2 = 0.694	0.577 ± 0.012	–
318.1 K, x2 = 0.855	0.361 ± 0.007	–
323 K, x2 = 0	–	0.46 ± 0.02
323 K, x2 = 0.026	0.204 ± 0.004	–
323 K, x2 = 0.095	–	1.09 ± 0.05
323 K, x2 = 0.099	0.715 ± 0.014	–
323 K, x2 = 0.142	0.908 ± 0.018	–
323 K, x2 = 0.201	1.08 ± 0.022	–
323 K, x2 = 0.278	1.07 ± 0.022	–
323 K, x2 = 0.372	0.991 ± 0.02	–
323 K, x2 = 0.498	–	9.89 ± 0.41
323 K, x2 = 0.501	0.834 ± 0.017	–
323 K, x2 = 0.694	0.658 ± 0.013	–
323 K, x2 = 0.856	–	37.4 ± 1.9
323 K, x2 = 0.862	0.416 ± 0.008	–
